# Test results from ChEMBL document CHEMBL5241112, “Insights into the recent progress in the medicinal chemistry of pyranopyrimidine analogs” (RSC Med Chem, 2022).
# Legend:
# [1] = Inhibition of Escherichia coli topoisomerase 4 assessed as reduction in decatenation
# Streptococcus pneumoniae [2] = assay: Antibacterial activity against Streptococcus pneumoniae ATCC BAA-255/R6 assessed as diameter of inhibition zone at 50 mg/ml incubated for 24 hrs by paper disk diffusion method; assay type: functional; conditions: read-out: DIZ
# Staphylococcus aureus [3] = assay: Antibacterial activity against Staphylococcus aureus ATCC6538-P assessed as diameter of inhibition zone at 50 mg/ml incubated for 24 hrs by paper disk diffusion method; assay type: functional; conditions: read-out: DIZ
# Aspergillus fumigatus = assay: microbe, parasite or virus in culture; assay type: functional; conditions: ATCC204305, dose 50 mg/ml, time 24 hrs, read-out: DIZ
# Streptococcus pneumoniae [4] = assay: Antibacterial activity against Streptococcus pneumoniae ATCC BAA-255/R6 assessed as inhibition of bacterial growth incubated for 24 hrs by disk diffusion method; assay type: functional
# Klebsiella pneumoniae = assay: Antibacterial activity against Klebsiella pneumoniae MGH 78578 assessed as diameter of inhibition zone at 50 mg/ml incubated for 24 hrs by paper disk diffusion method; assay type: functional; conditions: read-out: DIZ
# Aspergillus niger [5] = assay: Antifungal activity against Aspergillus niger ATCC 6275 assessed as inhibition of […] growth incubated for 7 days by broth macrodilution method; assay type: functional; conditions: ATCC 6275, 168 h, time 7 day
# Aspergillus niger [6] = assay: Antifungal activity against Aspergillus niger ATCC 6275 assessed as diameter of inhibition zone incubated for 7 days by disc diffusion assay; assay type: functional; conditions: time 7 day
# Pseudomonas aeruginosa [7] = assay: Antibacterial activity against Pseudomonas aeruginosa ATCC 27853 assessed as diameter of inhibition zone incubated for 24 hrs by disc diffusion assay; assay type: functional
# MCF7 [8] = assay: Anticancer activity against human MCF7 cells assessed as reduction in cell viability; assay type: functional, cell-based
# HepG2 = assay: Anticancer activity against human HepG2 cells assessed as reduction in cell viability; assay type: functional, cell-based
# HCT-116 = assay: cells; conditions: Homo sapiens
# Escherichia coli [9] = assay: Antibacterial activity against Escherichia coli ATCC 25922 assessed as diameter of inhibition zone incubated for 24 hrs by disc diffusion assay; assay type: functional
# Pseudomonas aeruginosa [10] = assay: Antibacterial activity against Pseudomonas aeruginosa ATCC 27853 assessed as inhibition of bacterial growth incubated for 24 hrs by broth macrodilution method; assay type: functional
# Escherichia coli [11] = assay: Antibacterial activity against Escherichia coli ATCC 25922 assessed as inhibition of bacterial growth incubated for 24 hrs by broth macrodilution method; assay type: functional
# Staphylococcus aureus [12] = assay: Antibacterial activity against Staphylococcus aureus ATCC 25923 assessed as inhibition of bacterial growth incubated for 24 hrs by broth macrodilution method; assay type: functional
# DNA = assay: Binding affinity to DNA (unknown origin) assessed as DNA intercalation; assay type: nucleic-acid assay
# Staphylococcus aureus [13] = assay: Antibacterial activity against Staphylococcus aureus ATCC 25923 assessed as diameter of inhibition zone incubated for 24 hrs by disc diffusion assay; assay type: functional
# DNA topoisomerase II = DNA topoisomerase II (Homo sapiens, UniProt P11388+Q02880); assay: Inhibition of DNA topoisomerase 2 (unknown origin); assay type: protein assay
# Bacillus subtilis [14] = assay: Antibacterial activity against Bacillus subtilis ATCC 6633 assessed as inhibition of bacterial growth incubated for 24 hrs by broth macrodilution method; assay type: functional
# Bacillus subtilis [15] = assay: Antibacterial activity against Bacillus subtilis ATCC 6633 assessed as diameter of inhibition zone incubated for 24 hrs by disc diffusion assay; assay type: functional
# PC-3 [16] = assay: Anticancer activity against human PC-3 cells assessed as tumor growth inhibition by sulforhodamine B assay; assay type: functional
# PC-3 [17] = assay: Anticancer activity against human PC-3 cells assessed as lethality by sulforhodamine B assay; assay type: functional; conditions: read-out: LC50 (the source's name)
# MCF7 [18] = assay: cells; conditions: Homo sapiens, MCF7, 48 h
# MDA-MB-435 [19] = assay: Anticancer activity against human MDA-MB-435 cells assessed as cell growth inhibition by sulforhodamine B assay; assay type: functional
# PC-3 [20] = assay: Anticancer activity against human PC-3 cells assessed as cell growth inhibition by sulforhodamine B assay; assay type: functional
# OVCAR-3 [21] = assay: Anticancer activity against human OVCAR-3 cells assessed as tumor growth inhibition by sulforhodamine B assay; assay type: functional
# HeLa = assay: Anticancer activity against human HeLa cells assessed as reduction in cell viability incubated for 48 hrs by MTT assay; assay type: functional, cell-based
# MDA-MB-435 [22] = assay: Anticancer activity against human MDA-MB-435 cells assessed as tumor growth inhibition by sulforhodamine B assay; assay type: functional
# MDA-MB-435 [23] = assay: Anticancer activity against human MDA-MB-435 cells assessed as lethality by sulforhodamine B assay; assay type: functional; conditions: read-out: LC50 (the source's name)
# OVCAR-3 [24] = assay: Anticancer activity against human OVCAR-3 cells assessed as cell growth inhibition by sulforhodamine B assay; assay type: functional
# OVCAR-3 [25] = assay: Anticancer activity against human OVCAR-3 cells assessed as lethality by sulforhodamine B assay; assay type: functional; conditions: read-out: LC50 (the source's name)
# Staphylococcus aureus [26] = assay: Antibacterial activity against Staphylococcus aureus assessed as inhibition of bacterial growth; assay type: functional
# Bacillus cereus = assay: Antibacterial activity against Bacillus cereus ATCC-14579 assessed as diameter of inhibition zone incubated for 24 hrs by disc diffusion method; assay type: functional
# Vibrio cholerae = assay: Antibacterial activity against Vibrio cholerae MTCC 3906 assessed as bacterial growth inhibition by broth microdilution method; assay type: functional
# Serratia marcescens [27] = assay: Antibacterial activity against Serratia marcescens assessed as diameter of inhibition zone by disc diffusion method; assay type: functional
# Serratia marcescens [28] = assay: Antibacterial activity against Serratia marcescens IMRU-70 assessed as diameter of inhibition zone incubated for 24 hrs by disc diffusion method; assay type: functional
# Salmonella typhimurium = assay: Antibacterial activity against Salmonella typhimurium MTCC 98 assessed as bacterial growth inhibition by broth microdilution method; assay type: functional, Salmonella enterica subsp. enterica serovar Typhimurium; conditions: Salmonella enterica
# Staphylococcus aureus [29] = assay: Antibacterial activity against Staphylococcus aureus NCTC-7447 assessed as diameter of inhibition zone incubated for 24 hrs by disc diffusion method; assay type: functional
# Proteus mirabilis = assay: Antibacterial activity against Proteus mirabilis NTCC-289 assessed as diameter of inhibition zone incubated for 24 hrs by disc diffusion method; assay type: functional
# Bacillus subtilis [30] = assay: Antimicrobial activity against Bacillus subtilis assessed as diameter of inhibition zone by agar well diffusion method; assay type: functional
# Escherichia coli [31] = assay: Antimicrobial activity against Escherichia coli assessed as diameter of inhibition zone by agar well diffusion method; assay type: functional
compound,measurement,setting,value
Nc1nc(=O)[nH]c2c1C(c1ccc(Cl)cc1)C=C(c1cc3ccccc3oc1=O)O2 (configuration not stated),IC50,[1],237 nM
same,zone of inhibition at 50000 µg/mL,Streptococcus pneumoniae [2],10 mm
same,zone of inhibition at 50000 µg/mL,Staphylococcus aureus [3],18 mm
same,zone of inhibition at 50000 µg/mL,Aspergillus fumigatus,10 mm
same,MIC,Streptococcus pneumoniae [4],7.8 µg/mL
Cc1nc2c(c(=O)[nH]1)C(c1ccc(Cl)cc1)C=C(c1cc3ccccc3oc1=O)O2 (configuration not stated),zone of inhibition at 50000 µg/mL,Klebsiella pneumoniae,20 mm
same,zone of inhibition at 50000 µg/mL,Streptococcus pneumoniae [2],14 mm
same,zone of inhibition at 50000 µg/mL,Staphylococcus aureus [3],10 mm
same,zone of inhibition at 50000 µg/mL,Aspergillus fumigatus,10 mm
C[C@@H]1[C@H](O)[C@@H](C)/C=C/C=C/C=C/C=C/C=C/C=C/C=C/[C@H](O[C@@H]2O[C@H](C)[C@@H](O)[C@H](N)[C@@H]2O)C[C@@H]2O[C@](O)(C[C@@H](O)C[C@@H](O)[C@H](O)CC[C@@H](O)C[C@@H](O)CC(=O)O[C@H]1C)C[C@H](O)[C@H]2C(=O)O [AMPHOTERICIN B],MIC,Aspergillus niger [5],0.781 µg/mL
same,diameter of the inhibition zone (DIZ),Aspergillus niger [6],26.3 mm
COc1ccc(C2c3c([nH]c(=O)[nH]c3=O)Oc3ncn(-c4cc(C)ccn4)c(=N)c32)cc1 (configuration not stated),diameter of the inhibition zone (DIZ),Pseudomonas aeruginosa [7],17.3 mm
same,IC50,MCF7 [8],2430 nM
same,IC50,HepG2,2090 nM
same,IC50,HCT-116,2610 nM
same,MIC,Aspergillus niger [5],15.4 µg/mL
same,diameter of the inhibition zone (DIZ),Escherichia coli [9],18.1 mm
same,MIC,Pseudomonas aeruginosa [10],3.12 µg/mL
same,MIC,Escherichia coli [11],0.781 µg/mL
same,diameter of the inhibition zone (DIZ),Aspergillus niger [6],17.2 mm
CCC(C)n1cnc2c(c1=N)C(c1ccc(OC)cc1)c1c([nH]c(=O)[nH]c1=O)O2 (configuration not stated),MIC,Staphylococcus aureus [12],1.56 µg/mL
same,IC50,MCF7 [8],2430 nM
same,IC50,DNA,27 µM
same,diameter of the inhibition zone (DIZ),Staphylococcus aureus [13],20.8 mm
same,IC50,HepG2,2090 nM
same,IC50,HCT-116,2610 nM
same,IC50,DNA topoisomerase II,0.752 µM
same,MIC,Bacillus subtilis [14],0.097 µg/mL
same,diameter of the inhibition zone (DIZ),Bacillus subtilis [15],26 mm
COc1cccc2c1C(=O)c1c(O)c3c(c(O)c1C2=O)C[C@@](O)(C(=O)CO)C[C@@H]3O[C@H]1C[C@H](N)[C@H](O)[C@H](C)O1.Cl [DOXORUBICIN HYDROCHLORIDE],TGI,PC-3 [16],76.7%
same,CC50,PC-3 [17],> 100 µM
same,IC50,MCF7 [18],< 10 µM
same,GI50,MDA-MB-435 [19],< 100 nM
same,GI50,PC-3 [20],< 100 nM
same,TGI,OVCAR-3 [21],56.3%
same,IC50,HeLa,< 10 µM
same,TGI,MDA-MB-435 [22],5.5%
same,CC50,MDA-MB-435 [23],91.8 µM
same,GI50,OVCAR-3 [24],< 100 nM
same,CC50,OVCAR-3 [25],> 100 µM
CC1(C)S[C@@H]2[C@H](NC(=O)[C@H](N)c3ccccc3)C(=O)N2[C@H]1C(=O)O [AMPICILLIN],MIC,Staphylococcus aureus [26],250 µg/mL
same,diameter of the inhibition zone (DIZ),Bacillus cereus,25 mm
same,MIC,Vibrio cholerae,100 µg/mL
same,diameter of the inhibition zone (DIZ),Serratia marcescens [27],25 mm
same,diameter of the inhibition zone (DIZ),Serratia marcescens [28],25 mm
same,MIC,Salmonella typhimurium,100 µg/mL
same,diameter of the inhibition zone (DIZ),Staphylococcus aureus [29],25 mm
same,MIC,Bacillus subtilis [14],0.45 µg/mL
same,diameter of the inhibition zone (DIZ),Proteus mirabilis,25 mm
same,diameter of the inhibition zone (DIZ),Bacillus subtilis [15],32.4 mm
CC(C)c1ccc(C2C(C#N)=C(N)Oc3[nH]c(=O)[nH]c(=O)c32)cc1 (configuration not stated),diameter of the inhibition zone (DIZ),Bacillus subtilis [30],13 mm
same,diameter of the inhibition zone (DIZ),Escherichia coli [31],10.8 mm
